From patent publication US6750349B2, “Gastrokinetic monocyclic benzamides of 3-or 4-substituted 4-(aminoethyl)-piperidine derivatives” (Janssen Pharmaceutics, N.V., priority 1997, dated 2004)

System: conscious dogs
Assay: Gastric emptying of an acaloric liquid test meal delayed by administration of lidamidine, in conscious dogs
Format: in vivo, beagle dogs
Conditions: conscious dog; for ΔT/T^b (acceleration of gastric emptying of a liquid meal delayed by lidamidine): dose of 0.0025 mg/kg; for ΔT/T^a (acceleration of gastric emptying of a liquid meal delayed by lidamidine): dose of 0.01 mg/kg
From the text: C.1. Gastric Emptying of an Acaloric Liquid Test Meal Delayed by Administration of Lidamidine, in Conscious Dogs
Female beagle dogs, weighing 7-14 kg, were trained to stand quietly in Pavlov frames. They were implanted with a gastric cannula under general anesthesia and aseptic precautions. After a median laparatomy, an incision was made through the gastric wall in the longitudinal direction between the greater and the lesser curve, 2 cm above the nerves of Latarjet. The cannula was secured to the gastric wall by means of a double purse string suture and brought out via a stab wound at the left quadrant of the hypochondrium. Dogs were allowed a recovery period of at least two weeks. Experiments were started after a fasting period of 24 hours, during which water was available ad libitum. At the beginning of the experiment, the cannula was opened in order to remove any gastric juice or food remnants.
The stomach was cleansed with 40 to 50 ml lukewarm water. The test compound was administered I.V. (in a volume≦3 ml via the vena cephalica), S. C. (in a volume≦3 ml) or P. O. (in a volume of 1 ml/kg body weight, applied intragastrically via the cannula with a device that filled the lumen of the cannula; after injection of the test compound, 5 ml NaCl 0.9% was injected in order to correct for the dead space in the injection system). Immediately after administration of the test compound or its solvent, lidamidine 0.63 mg/kg was administered subcutaneously. 30 min later, the cannula was opened to determine the amount of fluid present in the stomach, promptly followed by reintroduction of the fluid. Then the test meal was administered via the cannula. This test meal consisted of 250 ml distilled water containing glucose (5 g/l) as a marker. The cannula remained closed for 30 min, whereafter the gastric contents were drained from the stomach to measure total volume (t=30 min). For later analysis 1 ml of the gastric contents was taken, promptly followed by reintroduction of the rest volume into the stomach. This sequence was repeated 4 times with 30 min intervals (t=60, 90, 120, 150 min).
In the 1 ml samples of the gastric contents, the glucose concentrations were measured on a Hitachi 717 automatic analyzer by the hexokinase method (Schmidt, 1961).
Curves were fitted to the measurement points (glucose versus time) using weighed non-linear regression analysis. Gastric emptying was quantified as the time needed to empty 70% of the meal (t70%). The control emptying time was calculated as the mean t70% of the last 5 solvent experiments of the same dog. Acceleration of delayed gastric emptying (Δt) was calculated as the time difference between t70% compound and t70% solvent. To correct for variations in emptying rate between dogs, Δt was expressed as % of t70% solvent (Schuurkes et al, 1992)).

[1] = compounds, Δt = t70% compound minus t70% solvent, relative to t70% solvent

CCCCN1CC[C@@H](CNC(=O)c2cc(Cl)c(N)c(OC)c2OC)[C@H](O)C1.O (racemic) [Compound 9, (±)-trans-4-amino-N-[(1-butyl-3-hydroxy-4-piperidinyl)methyl] -5-chloro-2,3-dimethoxybenzamide monohydrate]
ΔT/T^b (acceleration of gastric emptying of a liquid meal delayed by lidamidine) [1]: −0.29
ΔT/T^a (acceleration of gastric emptying of a liquid meal delayed by lidamidine) [1]: −0.55
ΔT/T^b (acceleration of gastric emptying of a liquid meal delayed by lidamidine) (intermediates): −0.40
ΔT/T^a (acceleration of gastric emptying of a liquid meal delayed by lidamidine) (intermediates): −0.31

COc1c(C(=O)NC[C@@H]2CCN(CCCC(C)=O)C[C@H]2O)cc(Cl)c(N)c1OC.O (racemic) [Compound 14, (±)-trans-4-amino-5-chloro-N-[[3-hydroxy-1-(4-oxopentyl)-4-piperidinyl]methyl]-2,3-dimethoxybenzamide monohydrate]
ΔT/T^b (acceleration of gastric emptying of a liquid meal delayed by lidamidine) [1]: −0.52
ΔT/T^a (acceleration of gastric emptying of a liquid meal delayed by lidamidine) [1]: −0.67

COCCCN1CC[C@@H](CNC(=O)c2cc(Cl)c(N)c(OC)c2OC)[C@H](O)C1 (racemic) [Compound 11, (±)-trans-4-amino-5-chloro-N-[[3-hydroxy-1-(3-methoxypropyl)-4-piperidinyl]methyl]-2,3-dimethoxybenzamide]
ΔT/T^b (acceleration of gastric emptying of a liquid meal delayed by lidamidine) [1]: −0.62
ΔT/T^a (acceleration of gastric emptying of a liquid meal delayed by lidamidine) [1]: −0.59
